In this experiment the test system is HL-60. As to the kind of experiment: In vitro differentiation-inducing activity of human myeloid leukemia cells (HL-60) into macrophages; compound showed potent activity. It is filed as functional, cell-based.

The structures appear in SMILES notation.

Take `C=C1/C(=C\C=C2/CCC[C@@]3(C)C2CCC3[C@@H](C)SCCC(O)(CC)CC)C[C@@H](O)C[C@@H]1O` (stereo partly specified): the Activity entry is listed as “compound showed potent activity”.

The values above are taken from ChEMBL document CHEMBL1128122, “Synthesis of 1,25-dihydroxy-22-thiavitamin D3 and related analogs” (1995).
